The target in experiment [1] is T1, purified recombinant human IPMK kinase domain (Homo sapiens, UniProt Q8NFU5).
T1 sequence (Q8NFU5 with tags, fused parts or gaps): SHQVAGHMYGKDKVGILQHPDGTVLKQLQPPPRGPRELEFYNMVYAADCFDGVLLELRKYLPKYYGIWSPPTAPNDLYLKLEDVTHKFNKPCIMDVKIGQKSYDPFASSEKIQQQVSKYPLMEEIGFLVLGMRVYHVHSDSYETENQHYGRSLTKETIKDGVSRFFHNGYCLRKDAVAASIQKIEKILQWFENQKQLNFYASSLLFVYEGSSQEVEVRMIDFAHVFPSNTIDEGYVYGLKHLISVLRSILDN
Put plainly: IPMK IC50 determination, Kinase-Glo assay. The class given is biochemical. From the text: (§1) These assay conditions were optimized with respect to reaction time, IPMK enzyme concentration, and IP3 concentration to determine the IC50 values for these ATP-competitive compounds.
For orientation: Kinase-Glo measures the ATP left after a reaction by luminescence.

The test system of experiment [2] is purified recombinant human IPMK kinase domain. Put plainly: IPMK IC50 determination, Kinase-Glo assay. In kind it is biochemical.
From the text: as §1

In experiment [3] the target is T2, purified recombinant human IP6K2 kinase domain (Homo sapiens, UniProt Q9UHH9).
T2 sequence (Q9UHH9 1-426): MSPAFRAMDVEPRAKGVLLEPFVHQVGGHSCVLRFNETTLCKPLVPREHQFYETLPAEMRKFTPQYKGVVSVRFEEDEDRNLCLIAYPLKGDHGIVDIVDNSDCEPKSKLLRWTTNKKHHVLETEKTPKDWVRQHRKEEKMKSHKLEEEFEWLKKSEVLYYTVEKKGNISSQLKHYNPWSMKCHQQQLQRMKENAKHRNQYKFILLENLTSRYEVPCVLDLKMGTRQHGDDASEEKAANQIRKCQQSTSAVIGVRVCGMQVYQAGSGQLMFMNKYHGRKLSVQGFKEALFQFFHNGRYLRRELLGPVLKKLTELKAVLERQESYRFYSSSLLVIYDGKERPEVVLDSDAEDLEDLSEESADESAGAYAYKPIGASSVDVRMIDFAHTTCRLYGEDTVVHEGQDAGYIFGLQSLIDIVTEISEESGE
Put plainly: IP6K2 IC50 determination, malachite green Pi release assay. In kind it is biochemical. As for the experimental part:
IP6K2 IC50 values were determined using the purified recombinant human IP6K2 kinase domain expressed in a 384-well clear polystyrene plate (VWR 82051-264). This human IP6K2 kinase domain (100 nM) was used at 37 °C in 50 μL reaction mixtures containing 5.0 μM human Dipp1, 50 mM Tris (pH 6.9), 10 mM MgCl2, 0.02% Triton X-100, 25 μM InsP6, and 50 μM ATP for 30 min. Pi release was determined with a malachite green colorimetric assay. Reactions were quenched by the addition of 12.5 μL of phosphate detection reagent (MAK3071KT, Sigma-Aldrich). Pi release was quantified from the absorbance at 620 nm by using appropriate standards.

Experiment [4] relates to inositol phosphate levels in U251-MG cells. Put plainly: 3H-inositol metabolic labeling and HPLC of inositol phosphates. In kind it is cell-based, human. The note with it: 10 μM, vs DMSO. The procedure: Human U251-MG glioblastoma cells (ECACC 09063001) were grown in DMEM supplemented with 10% FBS. The medium was changed to inositol-free DMEM, and cells were inositol-starved for 1–3 days. Cells were maintained in inositol-free DMEM medium, treated with the indicated inhibitor or DMSO for 1–2.5 h, and supplemented with 100 μCi ^3H-inositol (PerkinElmer) for 48 or 72 h, as indicated on each figure. Cells were then washed in PBS and lysed in 200 μL HCl (0.5 M), 250 μL of MeOH was added to each well of a 6-well plate (approximately 10^6 cells), followed by 125 μL of 2 M KCl. Lysates were scraped and sonicated on ice for three 1 min cycles. Inositol phosphate (IP) extracts were cleaned of lipids by adding 250 μL of CHCl3, vortexing and centrifuging samples for 2 min at 5000 rpm to separate upper aqueous and lower organic phases, upper phase contains soluble IPs. This extraction was repeated once. Samples were dried in a SpeedVac, resuspended in 10 mM ammonium phosphate (pH= 3.5), and filtered. HPLC separation and detection of the inositol species on the upper phase used a Partisphere SAX 4.6 mm × 250 mm column, eluted with 10 mM (buffer A) to 1.3 M (buffer B) ammonium phosphate (pH = 3.8) and online flow scintillation analyzer (FSA, PerkinElmer). Elution of [^32P]-labeled IP4, IP5, and IP6 standards confirmed the identity of each peak off the HPLC. Quantification represents three biologically independent metabolic labeling samples with error representing the standard deviation of the mean.

A further experiment concerns the target T3, ABL (Homo sapiens, UniProt P00519).
T3 construct: purchased Carna Biosciences
Put plainly: Protein kinase profiling, Mobility Shift Assay (Carna Biosciences). As to conditions: read-out: % Inhibition at 1.0 μM 14. The class given is biochemical. The procedure: (§2) Protein kinase profiling of compound 14 was executed by Carna Biosciences. Briefly, compound 14 was prepared by dissolving it in dimethyl sulfoxide (DMSO) and then further diluting it in DMSO to a concentration of […]. That stock solution was further diluted 25-fold with kinase assay buffer (20 mM HEPES, 0.01% Triton X-100, 2 mM DTT, pH 7.5) to make the final 1 μM compound 14 solution. Reference compounds for the assay controls were prepared similarly. The off-chip Mobility Shift Assay (MSA) was prepared with 5 μL of 4× compound solution, 5 μL of 4× substrate/ATP/metal solution, and 10 μL of 2× kinase solution, prepared with assay buffer (20 mM HEPES, 0.01% Triton X-100, 2 mM DTT, pH 7.5). The components were mixed and incubated in a polypropylene 384-well microplate for 1 h or 5 h at room temperature, depending on the kinase being tested. 60 μL of termination buffer (QuickScout Screening Assist MSA; Carna Biosciences) was added to the well to stop the reactions, and the mixture was applied to a LabChip3000 system (Caliper Life Sciences. The product and substrate peptide peaks were separated and quantitated. The kinase reactions were evaluated by the product ratio, calculated from the peak heights of the product (P) and substrate (S) peptides (P/(P + S)). Product ratio values for the control reaction were set as 0% inhibition, and the readout value of the background (no kinase added) was set as 100% inhibition. The percent inhibition of each test solution was then calculated as reported in Figure A. The phylogenetic tree was generated using KinMap at https://bmcbioinformatics.biomedcentral.com/articles/10.1186/s12859-016-1433-7.

The next experiment concerns the target T4, CDK2 (Homo sapiens, UniProt P24941).
T4 construct: purchased Carna Biosciences
The description is as above. In kind it is biochemical. As to conditions: read-out: % Inhibition at 1.0 μM 14. The procedure:
as §2

The next experiment addresses T5, IRAK4 (Homo sapiens, UniProt Q9NWZ3).
T5 construct: purchased Carna Biosciences
Described as above. The class given is biochemical. As to conditions: read-out: % Inhibition at 1.0 μM 14. As for the experimental part:
as §2

In another experiment the target is T6, p38a (Homo sapiens, UniProt Q16539).
T6 construct: purchased Carna Biosciences
The experiment is described as above. In kind it is biochemical. The note with it: read-out: % Inhibition at 1.0 μM 14. The procedure:
as §2

Entries after “also recorded” stand apart in the source; their conditions may differ. Where two headings read alike, the source gives them in different places.

T3 sequence (P00519 whole entry): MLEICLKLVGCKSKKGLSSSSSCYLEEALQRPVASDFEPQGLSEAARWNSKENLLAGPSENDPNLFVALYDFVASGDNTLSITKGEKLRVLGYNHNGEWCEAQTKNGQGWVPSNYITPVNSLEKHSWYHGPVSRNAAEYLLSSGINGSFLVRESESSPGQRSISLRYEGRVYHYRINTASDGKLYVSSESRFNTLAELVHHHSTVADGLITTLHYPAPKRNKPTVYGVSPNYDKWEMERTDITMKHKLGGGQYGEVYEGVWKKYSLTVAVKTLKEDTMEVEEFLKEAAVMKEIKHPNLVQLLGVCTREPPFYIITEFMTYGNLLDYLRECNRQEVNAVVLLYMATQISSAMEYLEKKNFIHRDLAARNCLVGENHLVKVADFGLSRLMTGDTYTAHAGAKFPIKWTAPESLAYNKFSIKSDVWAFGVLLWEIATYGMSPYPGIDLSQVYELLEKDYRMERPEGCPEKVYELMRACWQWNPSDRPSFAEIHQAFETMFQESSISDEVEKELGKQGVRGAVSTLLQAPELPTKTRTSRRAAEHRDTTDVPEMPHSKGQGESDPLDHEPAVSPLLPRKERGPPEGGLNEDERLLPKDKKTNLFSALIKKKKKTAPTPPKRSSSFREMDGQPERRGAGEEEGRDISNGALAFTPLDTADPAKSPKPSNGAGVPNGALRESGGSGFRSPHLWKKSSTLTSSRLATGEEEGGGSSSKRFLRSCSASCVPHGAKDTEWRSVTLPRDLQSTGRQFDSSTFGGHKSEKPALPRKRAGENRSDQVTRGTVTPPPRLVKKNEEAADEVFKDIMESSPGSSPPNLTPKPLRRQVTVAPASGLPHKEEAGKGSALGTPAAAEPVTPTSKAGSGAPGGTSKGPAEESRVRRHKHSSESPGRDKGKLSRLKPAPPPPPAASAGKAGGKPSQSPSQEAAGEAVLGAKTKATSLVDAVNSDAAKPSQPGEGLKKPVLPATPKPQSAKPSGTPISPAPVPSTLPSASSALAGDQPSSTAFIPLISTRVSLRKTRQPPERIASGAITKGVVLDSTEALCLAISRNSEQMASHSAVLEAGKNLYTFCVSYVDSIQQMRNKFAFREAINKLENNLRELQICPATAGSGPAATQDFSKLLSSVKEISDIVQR
T5 sequence (Q9NWZ3 whole entry): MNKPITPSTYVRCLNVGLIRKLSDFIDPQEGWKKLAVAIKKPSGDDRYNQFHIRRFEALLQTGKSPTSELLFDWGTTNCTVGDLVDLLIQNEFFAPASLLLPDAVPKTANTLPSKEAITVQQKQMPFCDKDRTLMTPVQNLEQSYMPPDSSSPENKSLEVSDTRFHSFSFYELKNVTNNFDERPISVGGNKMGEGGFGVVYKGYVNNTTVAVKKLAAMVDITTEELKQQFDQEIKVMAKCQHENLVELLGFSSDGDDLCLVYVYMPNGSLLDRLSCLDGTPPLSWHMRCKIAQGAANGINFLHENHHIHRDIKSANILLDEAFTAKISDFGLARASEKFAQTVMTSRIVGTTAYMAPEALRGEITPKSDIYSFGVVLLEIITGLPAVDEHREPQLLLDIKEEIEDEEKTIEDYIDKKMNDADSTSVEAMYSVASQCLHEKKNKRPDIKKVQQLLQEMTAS
T6 sequence (Q16539 whole entry): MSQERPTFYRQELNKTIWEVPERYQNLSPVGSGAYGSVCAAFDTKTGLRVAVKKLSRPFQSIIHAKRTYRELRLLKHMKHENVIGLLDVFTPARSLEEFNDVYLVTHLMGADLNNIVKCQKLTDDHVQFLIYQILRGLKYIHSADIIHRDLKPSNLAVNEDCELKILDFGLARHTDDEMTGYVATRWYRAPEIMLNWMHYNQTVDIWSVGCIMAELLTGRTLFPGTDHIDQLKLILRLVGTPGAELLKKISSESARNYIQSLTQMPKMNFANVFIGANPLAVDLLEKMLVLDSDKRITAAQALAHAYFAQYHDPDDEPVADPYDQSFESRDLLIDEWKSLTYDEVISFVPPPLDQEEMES

The term IC50 denotes the concentration at which inhibition is half-maximal. What is called inhibition is the drop in the measured response relative to a control, in per cent. Consider `c1cc(-c2onc3ccc(-c4nnn[nH]4)cc23)cc(C2CCN(C3CCC3)CC2)c1` [Compound 14, 3-(3-(1-Cyclobutylpiperidin-4-yl)phenyl)-5-(1H-tetrazol-5-yl)benzo[c]isoxazole], for which the IC50 in experiment [1] (Kinase-Glo assay, 12.5 μM Ins(1,4,5)P3, 10 μM ATP, read-out: IC50 toward recombinant human IPMK) amounted to 32 ± 2.4 nM; in experiment [1] (supplementary csv, read-out: IPMK IC50), 31.6 ± 2.4 nM; in experiment [3] (supplementary csv), 374 ± 159 nM. Besides, the “concentration of maximum IPMK inhibition” value in experiment [2] stood at 100 nM. For the same compound, the IP6K2/IPMK in experiment [3] (Table S1, ratio of IC50 values) is 12. Moreover, in experiment [3] (from Table S1), the “selectivity for IPMK over IP6K2” value is given as 12 fold. In addition, in experiment [4] (48 h), the “decrease of InsP5 levels” value is recorded as 50%. In experiment [4] (48 h), the “increase of InsP4 levels” value is given as “about 50%”. Moreover, the “level of InsP6” value in experiment [4] (48 h) is “no change”. Further, the IP6 levels entry in experiment [4] (72 h) is “did not change; also recorded: does not decrease”. In addition, the InsP4 levels result in experiment [4] (72 h) is recorded as “rose slightly”. Besides, the InsP7 levels entry in experiment [4] (72 h) is “did not change; also recorded: does not decrease”. The inhibition at 1 µM at ABL came out at 27.5%; at CDK2, 1.6%; at IRAK4 it was 1.3%; at p38a it was 2.6%.

Values taken from article PMC12362615, “Design, Synthesis, and Cellular Characterization of a New Class of IPMK Kinase Inhibitors” (Journal of Medicinal Chemistry, 2025).
